The results in this text go back to paper PMC6718988, “Bioactivity and Bactericidal Mechanism of Histidine-Rich β-Hairpin Peptide Against Gram-Negative Bacteria” (International Journal of Molecular Sciences, 2019).

For one series, the system named is Gram-negative bacteria. Briefly: MICs against Gram-negative strains (geometric mean, range). Type of series: cell-based. Conditions: for MBC (GM), geometric mean of MICs, Gram (−): Gram-negative strains, 256 μM used where no activity at 128 μM. On the procedure: (§1) The minimum inhibitory concentration (MIC) was measured using a broth microdilution method to determine the in vitro antimicrobial activity of the peptides. Bacteria were inoculated into MHB and incubated overnight at 37 °C until the bacteria were in log phase growth. Next, we corrected the bacterial concentration to approximately 1 × 10^5 CFU/mL using MHB. The peptides were added to 96-well plates containing 0.01% acetic acid and 0.2% bovine serum albumin at final concentrations ranging from 0.25 to 128 μM. After incubation at 37 °C for 24 h, the absorbance was measured at 492 nm using a microplate reader (Tecan GENios F129004, Tecan, Austria). Broth containing microbes and […] were used as positive and negative controls, respectively. The lowest peptide concentration with no increase in absorbance compared to that of the negative control was defined as the MIC. The experiments were independently performed three times.

The subject of series [1] is human red blood cells (hRBCs). Description: Hemolytic activity. Particulars: 1 h, OD 570 nm.
Description: Briefly, collected human red blood cells (hRBCs) were washed three times with PBS (pH 7.4) and diluted to 1% in PBS. Next, equal volumes of blood cells were mixed with different peptide concentrations in 96-well plates followed by incubated at 37 °C for 1 h. The mixtures were centrifuged (1000 g, 5 min), and the supernatants were transferred to 96-well plates to measure the optical density (OD) at 570 nm. Untreated blood cells were used as negative controls, and 0.1% Triton X-100-treated blood cells were used as positive controls. The minimum peptide concentration corresponding to 5% hemolytic activity was defined as the minimal hemolytic concentration (MHC). These assays were independently repeated three times.
A short description of series [2]: RP-HPLC retention time as measure of hydrophobicity. Type of series: physicochemical. Conditions: analytical Kromasil C18 column 4.6 mm × 250 mm, 5.0 μm, acetonitrile, flow 1.0 mL/min, used as measure of hydrophobicity. Here is the method:
The hydrophobicities of the peptides in solution were reliably mirrored by their high-performance liquid chromatography (HPLC)retention times. The retention times for peptide HI2, HW2, HV2, HF2, and PG-1 were 11.13, 10.55, 12.20, 18.06 and 12.56 min, respectively, indicating the following hydrophobic order: HF2 > PG-1 > HV2 > HI2 > HW2(Table 1).
The designed peptides were synthesized and purified by GL Biochem (Shanghai, China). Acetonitrile was used on an analytical Kromasil C18 column (4.6 mm × 250 mm, 5.0 μm, LC 3000, Beijing, China), and the purity of the peptides was determined to be greater than 95% via reversed-phase high-performance liquid chromatography (RP-HPLC) with a flow rate of 1.0 mL/min. The experimental molecular weights of the peptides were evaluated via ESI-MS analysis, and these values were very close to the calculated masses. Next, the peptides were dissolved in deionized water at a concentration of 2.56 mM, and the peptide solutions were stored at −20 °C.

Series [3] is described as follows: LPS binding assay (BODIPY-TR-cadaverine displacement). Particulars: peptide concentration higher than 4 μM; 50 μg/mL LPS, 5 μg/mL BODIPY-TR cadaverine, Tris 50 mM pH 7.4; 100% = 10 μg/mL polymyxin B. Details: species or system E. coli. On the procedure:
The abilities of the antimicrobial peptides to bind LPS were determined using the fluorescent dye BODIPY-TR-cadaverine (BC) substitution method. LPS (50 μg/mL) from E. coli O111:B4 was incubated with BC (5 μg/mL) in Tris buffer (50 mm, pH 7.4) for 4 h. Next, 50 μL of various concentrations of peptides (final concentration of 1–64 μM) and 50 μL of LPS-BC mixture were added to 96-well plates, and the fluorescence was measured using a fluorescence spectrophotometer (Infinite 200 pro, Tecan, China) at an excitation wavelength of 580 nm and an emission wavelength of 620 nm. Each test was performed three times. The values were converted to %∆F (AU) using the following equation:%ΔF (AU) = [(Fobs − F0)/(F100 − F0)] × 100 where Fobs is the fluorescence value measured in the presence of the peptide, F0 is the initial fluorescence of LPS with BC without the addition of peptides, F100 is the fluorescence value produced by adding 10 μg/mL polymyxin B.

Series [4] relates to Gram-positive and Gram-negative bacteria. Here is the method:
as §1

For another series, the system named is Gram-positive bacteria. Here is the method: as §1
Series [5] has as its system methicillin-resistant S. aureus ATCC43300. Description: microbe, parasite or virus in culture. On the procedure:
as §1

A further series concerns S. pullorum C7913. Description: microbe, parasite or virus in culture. Here is the method: as §1
The subject of another series is E. coli K99. Description: microbe, parasite or virus in culture. Here is the method:
as §1

For a further series, the system named is E. coli UB1005. Briefly: microbe, parasite or virus in culture. On the procedure:
as §1

Another series relates to S. aureus ATCC29213. Briefly: microbe, parasite or virus in culture. On the procedure:
as §1

The subject of a further series is E. coli ATCC25922. Briefly: microbe, parasite or virus in culture. Here is the method: as §1
Another series has as its system P. aeruginosa ATCC27853. Briefly: microbe, parasite or virus in culture. On the procedure: as §1
Another series relates to E. coli K88. Description: microbe, parasite or virus in culture. Here is the method: as §1
Another series relates to S. epidermidis ATCC12228. Description: microbe, parasite or virus in culture. On the procedure:
as §1

[6] abbreviates: S.aureus 43300 (methicillin-resistant), MHB, about 1 × 10^5 CFU/mL, 37 °C, 24 h, three independent experiments.
Where [7] appears, read: E. coli K99, MHB, about 1 × 10^5 CFU/mL, 37 °C, 24 h, three independent experiments.
[8] abbreviates: S.aureus 29213, MHB, about 1 × 10^5 CFU/mL, 37 °C, 24 h, three independent experiments.
[9] abbreviates: P. auruginosa 27853, MHB, about 1 × 10^5 CFU/mL, 37 °C, 24 h, three independent experiments.
The mark [10] stands for this setting: E. coli K88, MHB, about 1 × 10^5 CFU/mL, 37 °C, 24 h, three independent experiments.
[11] abbreviates: S.epidermidis 12228, MHB, about 1 × 10^5 CFU/mL, 37 °C, 24 h, three independent experiments.

In brackets after ≈: the same amount, converted by molar mass. Where two headings read alike, the source gives them in different places. Where a SMILES comes first, the peptide text is derived from it. Bridges are numbered along the chain shown (N, C = ends). [ ]: non-standard residue; d: D form. The star is where a group is joined. X1 = CC[C@H](C)CCCCC(=O)*; Dab = NCC[C@H](N)C(=O)O

In the case of `CC[C@H](C)[C@H](NC(=O)CNC(=O)[C@H]1CCCN1C(=O)[C@@H](NC(=O)[C@H](Cc1c[nH]cn1)NC(=O)[C@@H](NC(=O)[C@H](Cc1c[nH]cn1)NC(=O)[C@@H](NC(=O)[C@H](CCCNC(=N)N)NC(=O)[C@@H](N)CCCNC(=N)N)[C@@H](C)CC)[C@@H](C)CC)[C@@H](C)CC)C(=O)N[C@@H](Cc1c[nH]cn1)C(=O)N[C@H](C(=O)N[C@@H](Cc1c[nH]cn1)C(=O)N[C@H](C(=O)N[C@@H](CCCNC(=N)N)C(=O)N[C@@H](CCCNC(=N)N)C(N)=O)[C@@H](C)CC)[C@@H](C)CC` [HI2] (H-RRIHIHI[dP]GIHIHIRR-NH2; N-terminus assumed), the “MBC (GM), geometric mean of MICs, Gram (−)” value in the series with Gram-negative bacteria was determined as 50.80 µM. In addition, the hemolysis rate in series [1] (at the highest concentration (128 μM), 1% hRBC in PBS, 37 °C, 0.1% Triton X-100 positive control) is on record as 3.4%. Moreover, in [1] (concentration causing 5% hemolysis of hRBC, 1% hRBC in PBS pH 7.4, 37 °C, repeated three times), the “MHC, minimum hemolytic concentration” value is reported as greater than 128 µM. Besides, the “Retention Time” value in series [2] came out at 11.13 min. Further, in [3], the “LPS binding ability relative to binding activity of polymyxin B” value is “higher than 60%”. For the same compound, the “MBC (GM), geometric mean of MICs, Gram (+,−)” value in series [4] (24 h) worked out at 87.09 µM. For the same compound, the “MBC (GM), geometric mean of MICs, Gram (+)” value with Gram-positive bacteria (24 h) came out at 256 µM. In addition, the MIC in series [5] (setting [6]) is greater than 128 µM; in the series on S. pullorum C7913 (C7913, 24 h), 16 µM (≈ 32.4 µg/mL); in the series with E. coli K99 (setting [7]), greater than 128 µM; in the series with E. coli UB1005 (UB1005, 24 h), 16 µM (≈ 32.4 µg/mL); in the series with S. aureus ATCC29213 (setting [8]), greater than 128 µM; in the series with E. coli ATCC25922 (ATCC25922, 24 h), 32 µM (≈ 64.8 µg/mL). Further, the MIC with P. aeruginosa ATCC27853 (setting [9]) is greater than 128 µM; in the series with E. coli K88 (setting [10]) it was 32 µM (≈ 64.8 µg/mL); against S. epidermidis ATCC12228 (setting [11]) it was greater than 128 µM.
As for `CC[C@H](C)CCCCC(=O)N[C@@H](CCN)C(=O)N[C@H](C(=O)N[C@@H](CCN)C(=O)N[C@H]1CCNC(=O)[C@H]([C@@H](C)O)NC(=O)[C@H](CCN)NC(=O)[C@H](CCN)NC(=O)[C@H](CC(C)C)NC(=O)[C@@H](Cc2ccccc2)NC(=O)[C@H](CCN)NC1=O)[C@@H](C)O` [Polymyxin B, polymyxin B] (X1-[Dab]T[Dab][Dab][Dab][dF]L[Dab][Dab]T; lactam 4-C (inferred); N-terminus assumed), the “MBC (GM), geometric mean of MICs, Gram (−)” value in the series on Gram-negative bacteria was found to be 1.12 µM. Further, in series [4] (all strains, 256 μM used where no activity at 128 μM), the “MBC (GM), geometric mean of MICs, Gram (+,−)” value came out at 4 µM. Moreover, the “MBC (GM), geometric mean of MICs, Gram (+)” value with Gram-positive bacteria (Gram-positive strains, 256 μM used where no activity at 128 μM) came to 50.8 µM. The MIC in series [5] (setting [6]) came out at 64 µM (≈ 77 µg/mL); in the series on S. pullorum C7913 (S.pullorum C7913, MHB, about 1 × 10^5 CFU/mL, 37 °C, 24 h, three independent experiments), 1 µM (≈ 1.2 µg/mL); with E. coli K99 (setting [7]), 1 µM (≈ 1.2 µg/mL); with E. coli UB1005 (E. coli UB1005, MHB, about 1 × 10^5 CFU/mL, 37 °C, 24 h, three independent experiments) it was 1 µM (≈ 1.2 µg/mL); in the series with S. aureus ATCC29213 (setting [8]) it was 64 µM (≈ 77 µg/mL); with E. coli ATCC25922 (E. coli 25922, MHB, about 1 × 10^5 CFU/mL, 37 °C, 24 h, 0.25-128 μM, three independent experiments), 2 µM (≈ 2.41 µg/mL). Moreover, the values for the MIC with P. aeruginosa ATCC27853 (setting [9]), in the series with E. coli K88 (setting [10]) and with S. epidermidis ATCC12228 (setting [11]) were 2 µM (≈ 2.41 µg/mL), 0.5 µM (≈ 0.602 µg/mL) and 32 µM (≈ 38.5 µg/mL), respectively.
In the case of `CN[C@H](CC(C)C)C(=O)N[C@H]1C(=O)N[C@@H](CC(N)=O)C(=O)N[C@H]2C(=O)N[C@H]3C(=O)N[C@H](C(=O)N[C@H](C(=O)O)c4cc(O)cc(O)c4-c4cc3ccc4O)[C@H](O)c3ccc(c(Cl)c3)Oc3cc2cc(c3O[C@@H]2O[C@H](CO)[C@@H](O)[C@H](O)[C@H]2O[C@H]2C[C@](C)(N)[C@H](O)[C@H](C)O2)Oc2ccc(cc2Cl)[C@H]1O` [Vancomycin], the geometric mean MIC in the series with Gram-negative bacteria (read-out: MBC (GM), geometric mean of MICs, Gram (−)) was determined as 11.3 µM. Also, the MIC amounted to 0.5 µM (≈ 0.725 µg/mL) in [5] (Staphylococcus aureus, ATCC43300, 24 h); 8 µM (≈ 11.6 µg/mL) against S. pullorum C7913 (Salmonella enterica, PULLORUM, 24 h); 4 µM (≈ 5.8 µg/mL) against E. coli K99 (Escherichia coli, K99, 24 h); 16 µM (≈ 23.2 µg/mL) with E. coli UB1005 (Escherichia coli, UB1005, 24 h); 0.5 µM (≈ 0.725 µg/mL) in the series with S. aureus ATCC29213 (Staphylococcus aureus, ATCC29213, 24 h); 8 µM (≈ 11.6 µg/mL) in the series with E. coli ATCC25922 (Escherichia coli, ATCC25922, 24 h). In addition, the MIC against P. aeruginosa ATCC27853 (Pseudomonas aeruginosa, ATCC27853, 24 h) was greater than 128 µM; against E. coli K88 (Escherichia coli, K88, 24 h), 2 µM (≈ 2.9 µg/mL); with S. epidermidis ATCC12228 (Staphylococcus epidermidis, ATCC12228, 24 h), 0.5 µM (≈ 0.725 µg/mL).
